The text below walks through data of paper PMC7036544, “Persistent candida arthritis successfully treated with micafungin instillation and surgery. A case report” (Medical Mycology Case Reports, 2019).

One series relates to C. krusei knee arthritis. In words: Clinical outcome of C. krusei knee arthritis. It counts as in vivo, human. As to conditions: one patient; instillation of micafungin in the knee plus intravenous micafungin and arthroscopic debridement. An excerpt: A week later, the patient was readmitted for a second course of chemotherapy and amphotericin-B oral solution was given to prevent a new episode of translocation of C. krusei. During this hospital stay they hit their left knee on the side of the bed. Their knee continued to be painful and as a knee effusion was noted three days after injury, the orthopedic surgeon was consulted. On physical examination a large effusion of their left knee was found. The joint was not visibly red, but was warm on palpation. Their temperature was 38.4° Celsius. A plain knee radiograph of the knee was normal. An aspiration of the affected knee was performed and the joint fluid was sent for culture, this day was considered as day 0. Day 1 the joint aspiration grew C. krusei for which intravenous micafungin was restarted at a dose of 100mg twice daily. As the patient was deeply thrombopenic as well as neutropenic at that time, no arthroscopic drainage and lavage was performed but instead the knee was repeatedly drained by needle aspiration. On the day of the first needle aspiration of the knee and for the next 10 days, blood cultures were positive for C. krusei as well. Furthermore, repeated needle aspirations of the knee continued to grow C. krusei. An echocardiography at day 6 was normal. […]

The nature of series [1]: Local toxicity in the knee joint after intra-articular micafungin. The format is in vivo, human. As to conditions: one patient; intra-articular instillation, local concentration 11mg/l.
The conditions of series [2]: healthy subjects; cited from earlier work.
The next series relates to C. krusei. In words: MIC of micafungin for the patient's C. krusei. To be noted: isolate of the patient. The format is cell-based, Candida krusei.
Series [3] in a line: Micafungin concentration in serum of the patient. The format is in vivo, human. As to conditions: one patient, single measurement. Here is the method:
C. krusei has been identified with the use of CHROMagar™ with subsequent identification by Maldi-TOF, with database MALDI BDAL Database version 8.0. Micafungin concentrations were measured (laboratory of pharmacy, University Hospital Nijmegen, the Netherlands) in serum and joint fluid. The concentrations in […] and concentration in synovial fluid 24 hours after installation of 3mg of micafungin in the knee was 11mg/L at day 19, as well presented in Table 1. Reference concentrations of micafungin in serum derived from 2 studies in critically ill patients trough level 1.4–3.1 mg/L were described. […] Administration of 100mg once daily results in trough serum concentration levels of 2 mg-L [14]. In hematology patients reference concentrations after intravenous micafungin are available as well [15].

The conditions of series [4]: critically ill patients, 2 studies; cited from earlier work.
The nature of series [5]: Micafungin concentration in joint (synovial) fluid of the patient after intra-articular instillation. It counts as in vivo, human. To be noted: one patient; day 19; joint fluid aspirated 24 hours after intra-articular instillation of 3mg micafungin (trough); IA 3mg OD day 17 – day 24; single measurement. Here is the method:
C. krusei has been identified with the use of CHROMagar™ with subsequent identification by Maldi-TOF, with database MALDI BDAL Database version 8.0. Micafungin concentrations were measured (laboratory of pharmacy, University Hospital Nijmegen, the Netherlands) in serum and joint fluid. The concentrations in serum 12 hours after the administration of 100mg intravenously at day 13 and 16 of therapy were 4.5 and 1.5mg/L respectively and concentration in synovial fluid 24 hours after installation of 3mg of micafungin in the knee was 11mg/L at day 19, as well presented in Table 1. Reference concentrations of micafungin in serum derived from 2 studies in critically ill patients trough level 1.4–3.1 mg/L were described. […] Administration of 100mg once daily results in trough serum concentration levels of 2 mg-L [14]. In hematology patients reference concentrations after intravenous micafungin are available as well [15].

The conditions of series [6]: reconstitution in NaCl 0.9%; cited from earlier work. An excerpt: Synovial fluid is a transudate of plasma, so dissolution of micafungin in synovial fluid will be likely. Moreover, diffusion from plasma to the synovial fluid will occur. Unfortunately, data about the extent of diffusion from plasma to the synovial fluid are not available. The possible side effects as well as the possible toxic effects on cartilage of micafungin when administered directly into a joint are unknown. However, we decided to administer micafungin through direct intra-articular instillation as, despite prolonged high-dose intravenous micafungin therapy, blood as well as synovial cul ...

Starred links: 1 amine or outer side, 2 acyl side, 3 side chain; linkers in the order of their positions; H or OH if unused. Positions of bridges follow the written chain, without caps; N, C: chain ends. Non-standard residues stand in square brackets, D forms with d. Residues, ends and D or L forms follow the SMILES beside them. *: point of attachment. hTyr(3S-OH,4S-OH,3'-OSO3H) = N[C@H](C(=O)O)[C@H](O)[C@@H](O)c1ccc(O)c(OS(=O)(=O)O)c1; Orn(4R-OH,5R-OH) = O=C([C@H](C[C@@H](O)[C@@H](O)N[*:3])N[*:1])[*:2]; Pro(3S-OH,4S-Me) = C[C@H]1CN[C@H](C(=O)O)[C@H]1O; X1 = CCCCCOc1ccc(-c2cc(-c3ccc(C(=O)*)cc3)no2)cc1; Gln(3R-OH) = NC(=O)C[C@@H](O)[C@H](N)C(=O)O; Hyp = O=C(O)[C@@H]1C[C@@H](O)CN1

In the case of `CCCCCOc1ccc(-c2cc(-c3ccc(C(=O)N[C@H]4C[C@@H](O)[C@@H](O)NC(=O)[C@@H]5[C@@H](O)[C@@H](C)CN5C(=O)[C@H]([C@H](O)CC(N)=O)NC(=O)[C@H]([C@H](O)[C@@H](O)c5ccc(O)c(OS(=O)(=O)O)c5)NC(=O)[C@@H]5C[C@@H](O)CN5C(=O)[C@H]([C@@H](C)O)NC4=O)cc3)no2)cc1` [micafungin] (X1-[Orn(4R-OH,5R-OH)]T[Hyp][hTyr(3S-OH,4S-OH,3'-OSO3H)][Gln(3R-OH)][Pro(3S-OH,4S-Me)]; lactam 1-C), the Clinical outcome with C. krusei knee arthritis is “completely recovered”. Also, the “Local toxicity of the joint” value in series [1] was “no local toxicity was observed”. Moreover, in series [2], the Half-life was 15 h. In addition, in series [2], the Volume of distribution is reported as 0,2 L/kg. In addition, in the series on C. krusei, the “MIC of the C. krusei” value turned out to be 0.125 mg/L. Moreover, the “Micafungin concentration in serum” value in series [3] (12 hours after administration of 100mg intravenously, day 16 of therapy) worked out at 1.5 mg/L. Besides, the “Micafungin concentration (trough serum)” value in series [3] (day 14, IV 100mg BID day 1 – day 15) was 4.5 mg/L; in series [3] (day 17 (day of surgery), IV 200mg OD day 16 – day 32) it was 1.5 mg/L. Besides, the “Reference concentration of micafungin in serum, trough level” value in series [4] is 1.4 to 3.1 mg/L. In series [5], the “Micafungin concentration in synovial fluid (joint)” value is recorded as 11 mg/L. Further, the pH after reconstitution in series [6] is on record as 5–7.
